Measured values reported in the supplement of paper PMC11208160.

Experiment: recombinant barcode read abundance after kanamycin selection (control-corrected) (log10(CPM+1)); higher = more efficient recombination; sequences stand for … in AGTGCAGAGAAAATCGGCCAGTTTTCTCTGCCTGCAGTCCGCATGCCGT…AGATTTATGCAGCGGACTGCCTTTCTCCCAAAGTGATAAACCGGACAGTATCATGGACCGGTTTTCCCGGTAATCCGTATTTGCAAGGTTGGTTTCACT; site = the 11-nt target
Outline: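 Recombination efficiency was calculated from barcode counts at recombinant junctions, normalized to counts per million, averaged and corrected by the control. Each value is given as log10(CPM+1). The constructs were Gibson-cloned oligos (promoter, target, barcode, J23119-driven first 104 bridge RNA bases) in a vector with the remaining 73 bp and a T7-inducible recombinase, co-electroporated into E. coli with a donor plasmid and plated in duplicate on chloramphenicol/ampicillin LB agar (control) or chloramphenicol/ampicillin/kanamycin with 0.1 mM IPTG.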
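Further: IS621 recombinase and bridge RNA in Escherichia coli cells.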

Sequence	recombinant barcode read abundance (log10)
CAATTACCTTGGGTTCTAACCTGTTGCTT (site CAATTACCTAA)	0.682
CAATTACCTTGGGTTCTAACCTGTTGCTT (site GCGCCCTCTCG)	0.0793
CACAAACCTTGGGTTCTAACCTGTTGCAG (site AGATGTGCTAG)	0.054
CACAAACCTTGGGTTCTAACCTGTTGCAG (site CACAAACCTCT)	1.17
CACAAGTCTTGGGTTCTAACCTGTTGCAG (site CACAAGTCTCG)	0.519
CACAAGTCTTGGGTTCTAACCTGTTGCAG (site CACAAGTCTCT)	2
CACAAGTCTTGGGTTCTAACCTGTTGCCG (site CACAAGTCTCG)	0.657
CACAAGTCTTGGGTTCTAACCTGTTGCCG (site CACAAGTCTCT)	0.182
CACACACCTTGGGTTCTAACCTGTTGCGT (site CACAATCCTAC)	0.189
CACACACCTTGGGTTCTAACCTGTTGCGT (site CACACACCTAC)	2.86
CACACGGCTTGGGTTCTAACCTGTTGCCT (site CACACCGCTAG)	0.246
CACACGGCTTGGGTTCTAACCTGTTGCCT (site CACACGGCTAG)	0.518
CACACTACTTGGGTTCTAACCTGTTGCTT (site CACACTACTAA)	0.0581
CACACTACTTGGGTTCTAACCTGTTGCTT (site TATACTACTAA)	0.101
CACAGCACTTGGGTTCTAACCTGTTGCCT (site CACAACACTAG)	0.065
CACAGCACTTGGGTTCTAACCTGTTGCCT (site CACACCACTAG)	0.00856
CACAGCACTTGGGTTCTAACCTGTTGCCT (site CACAGCACTAG)	1.44
CACAGCACTTGGGTTCTAACCTGTTGCCT (site CACATCACTAG)	0.0547
CACAGGCCTTGGGTTCTAACCTGTTGCAG (site CACAGGCCTCT)	1.98
CACAGGCCTTGGGTTCTAACCTGTTGCAG (site TGTTCAGCTAG)	0.0715
CACATACCTTGGGTTCTAACCTGTTGCAT (site CACATACCTAT)	1.87
CACATACCTTGGGTTCTAACCTGTTGCAT (site CACCTTCCTAT)	0.0683
CACATCACTTGGGTTCTAACCTGTTGCCT (site CACAACACTAG)	0.122
CACATCACTTGGGTTCTAACCTGTTGCCT (site CACACCACTAG)	0.225
CACATCACTTGGGTTCTAACCTGTTGCCT (site CACAGCACTAG)	0.0683
CACATCACTTGGGTTCTAACCTGTTGCCT (site CACATCACTAG)	0.704

Sequence	recombinant barcode read abundance (log10)
CACATGCCTTGGGTTCTAACCTGTTGCTG (site CACATGCCTCA)	2
CACATGCCTTGGGTTCTAACCTGTTGCTG (site TTGTACACTGG)	0.0315
CACCAGACTTGGGTTCTAACCTGTTGCCA (site ACAATCTCTGA)	0.0296
CACCAGACTTGGGTTCTAACCTGTTGCCA (site CACCAGACTTG)	0.539
CACCCACCTTGGGTTCTAACCTGTTGCCT (site AACCCACCTAG)	0.0311
CACCCACCTTGGGTTCTAACCTGTTGCCT (site CACCCACCTAG)	1.66
CACCCACCTTGGGTTCTAACCTGTTGCCT (site GACCCACCTAG)	0.0974
CACCCACCTTGGGTTCTAACCTGTTGCCT (site TACCCACCTAG)	0.0304
CACCCTTCTTGGGTTCTAACCTGTTGCTC (site CACCCTTCTGA)	1.94
CACCCTTCTTGGGTTCTAACCTGTTGCTC (site TCTGGCCCTAG)	0.0488
CACCGAGCTTGGGTTCTAACCTGTTGCTA (site CACCGAGCTTA)	0.528
CACCGAGCTTGGGTTCTAACCTGTTGCTA (site TTGACGACTCG)	0.177
CACCTTCCTTGGGTTCTAACCTGTTGCAT (site CACATACCTAT)	0.196
CACCTTCCTTGGGTTCTAACCTGTTGCAT (site CACCTTCCTAT)	1.77
CACGACCCTTGGGTTCTAACCTGTTGCCT (site CAAGACCCTAG)	0.0526
CACGACCCTTGGGTTCTAACCTGTTGCCT (site CACGACCCTAG)	2.05
CACGACCCTTGGGTTCTAACCTGTTGCCT (site CAGGACCCTAG)	0.0694
CACGACCCTTGGGTTCTAACCTGTTGCCT (site CATGACCCTAG)	0.16
CACGAGGCTTGGGTTCTAACCTGTTGCCT (site CACGAGACTAG)	0.707
CACGAGGCTTGGGTTCTAACCTGTTGCCT (site CACGAGCCTAG)	0.0831
CACGAGGCTTGGGTTCTAACCTGTTGCCT (site CACGAGGCTAG)	0.527
CACGAGGCTTGGGTTCTAACCTGTTGCCT (site CACGAGTCTAG)	0.322
CACGATGCTTGGGTTCTAACCTGTTGCCT (site CAAGATGCTAG)	0.437
CACGATGCTTGGGTTCTAACCTGTTGCCT (site CACGATGCTAG)	0.789
CACGATGCTTGGGTTCTAACCTGTTGCCT (site CAGGATGCTAG)	0.226
CACGATGCTTGGGTTCTAACCTGTTGCCT (site CATGATGCTAG)	0.351

Sequence	recombinant barcode read abundance (log10)
CACGCTTCTTGGGTTCTAACCTGTTGCTA (site CACGCGTCTCA)	0.0477
CACGCTTCTTGGGTTCTAACCTGTTGCTA (site CACGCTTCTTA)	1.01
CACGGTCCTTGGGTTCTAACCTGTTGCCT (site CACGGTCCTAG)	2.13
CACGGTCCTTGGGTTCTAACCTGTTGCCT (site CTCGGTGCTAG)	0.0233
CACTCTCCTTGGGTTCTAACCTGTTGCAT (site CACTCTCCTAG)	0.11
CACTCTCCTTGGGTTCTAACCTGTTGCAT (site CACTCTCCTAT)	0.728
CACTGGTCTTGGGTTCTAACCTGTTGCCT (site CACTGATCTAG)	0.532
CACTGGTCTTGGGTTCTAACCTGTTGCCT (site CACTGCTCTAG)	0.0756
CACTGGTCTTGGGTTCTAACCTGTTGCCT (site CACTGGTCTAG)	1.12
CACTGGTCTTGGGTTCTAACCTGTTGCCT (site CACTGTTCTAG)	0.0874
CACTTATCTTGGGTTCTAACCTGTTGCCT (site CACTTAACTAG)	0.149
CACTTATCTTGGGTTCTAACCTGTTGCCT (site CACTTACCTAG)	0.308
CACTTATCTTGGGTTCTAACCTGTTGCCT (site CACTTAGCTAG)	0.0751
CACTTATCTTGGGTTCTAACCTGTTGCCT (site CACTTATCTAG)	0.549
CACTTGCCTTGGGTTCTAACCTGTTGCCT (site CACTTGACTAG)	0.0347
CACTTGCCTTGGGTTCTAACCTGTTGCCT (site CACTTGCCTAG)	0.754
CACTTGCCTTGGGTTCTAACCTGTTGCCT (site CACTTGGCTAG)	0.0743
CACTTGCCTTGGGTTCTAACCTGTTGCCT (site CACTTGTCTAG)	0.614
CACTTGGCTTGGGTTCTAACCTGTTGCAG (site CACTGGGCTCT)	0.468
CACTTGGCTTGGGTTCTAACCTGTTGCAG (site CACTTGGCTCT)	0.706
CAGAAGCCTTGGGTTCTAACCTGTTGCCT (site AAGAAGCCTAG)	0.661
CAGAAGCCTTGGGTTCTAACCTGTTGCCT (site CAGAAGCCTAG)	1.65
CAGAAGCCTTGGGTTCTAACCTGTTGCCT (site GAGAAGCCTAG)	0.193
CAGAAGCCTTGGGTTCTAACCTGTTGCCT (site TAGAAGCCTAG)	0.0644
CAGACTTCTTGGGTTCTAACCTGTTGCCT (site CAGACTTCTAG)	0.473
